Consider 28 compounds from US20120309750A1, “5-MEMBERED HETEROCYCLE DERIVATIVES AND MANUFACTURING PROCESS THEREOF” (ILDONG PHARM CO., LTD., priority 2010, published 2012).

The test system of test [1] is human colorectal cancer cells (HCT116). The experiment in a line: Growth inhibition assay (cytotoxicity) in HCT116. The class given is cell-based. Conditions: HCT-116. The procedure: (§1) For present invention, the ATPase activity of yeast HSP90 was measured using malachite green assay. Formula I compounds for primary antitumoral activity were treated in human colorectal cancer cells (HCT116) showing increased expression levels of HSP90 client protein and cotoxicity IC50 values was measured as a result.

Another test concerns the target yeast HSP90 (Saccharomyces cerevisiae, UniProt P02829). The experiment in a line: Hsp90 ATPase assay (malachite green). The class given is biochemical. On the procedure:
as §1

Bounds are passed on as bounds.

Chain of yeast HSP90 (P02829 whole entry): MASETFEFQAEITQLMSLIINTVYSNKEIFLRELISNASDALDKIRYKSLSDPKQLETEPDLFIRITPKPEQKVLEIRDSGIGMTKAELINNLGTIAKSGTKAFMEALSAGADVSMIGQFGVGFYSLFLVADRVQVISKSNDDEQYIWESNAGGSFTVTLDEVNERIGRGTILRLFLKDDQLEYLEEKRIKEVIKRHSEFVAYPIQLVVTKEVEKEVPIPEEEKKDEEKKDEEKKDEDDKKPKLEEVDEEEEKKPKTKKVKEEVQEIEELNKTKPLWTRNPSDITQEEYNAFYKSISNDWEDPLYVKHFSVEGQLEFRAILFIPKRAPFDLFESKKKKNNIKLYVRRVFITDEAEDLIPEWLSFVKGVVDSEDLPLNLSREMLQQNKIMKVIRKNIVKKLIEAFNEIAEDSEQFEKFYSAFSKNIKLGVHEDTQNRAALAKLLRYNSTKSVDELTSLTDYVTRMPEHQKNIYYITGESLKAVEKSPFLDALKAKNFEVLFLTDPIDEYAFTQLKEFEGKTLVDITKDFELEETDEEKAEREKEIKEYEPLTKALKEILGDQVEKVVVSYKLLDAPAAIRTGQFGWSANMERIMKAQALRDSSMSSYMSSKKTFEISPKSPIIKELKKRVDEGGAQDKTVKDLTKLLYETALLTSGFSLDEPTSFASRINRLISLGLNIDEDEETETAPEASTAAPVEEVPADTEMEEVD

For orientation: IC50 means the point on the concentration scale where inhibition reaches its midpoint. In the case of `CCNC(=O)c1noc(-c2cc(C(C)C)c(O)cc2O)c1-c1noc(-c2ccco2)n1` [Compound I-63, 5-(2,4-Dihydroxy-5-isopropylphenyl)-N-ethyl-4-(5-(furan-2-yl)-1,2,4-oxadiazol-3-yl)isoxazole-3-carboxamide], the IC50 (in test [1]; against yeast HSP90) was less than 500 nM throughout.
Take `CCNC(=O)c1noc(-c2cc(C(C)C)c(O)cc2O)c1-c1noc(C(=O)N(C)C)n1` [Compound I-64, 3-(5-(2,4-Dihydroxy-5-isopropylphenyl)-3-(ethylcarbamoyl)isoxazol-4-yl)-N,N-dimethyl-1,2,4-oxadiazole-5-carboxamide]: the IC50 (in test [1]; against yeast HSP90) was less than 500 nM in each case.
As for `CCNC(=O)c1noc(-c2cc(C(C)C)c(O)cc2O)c1-c1noc(C(C)C)n1` [Compound I-65, 5-(2,4-Dihydroxy-5-isopropylphenyl)-N-ethyl-4-(5-isopropyl-1,2,4-oxadiazol-3-yl)isoxazole-3-carboxamide], the 50% inhibitory concentration (IC50) (in test [1]; against yeast HSP90) was less than 500 nM each time.
For the compound `CCNC(=O)c1noc(-c2cc(C(C)C)c(O)cc2O)c1-c1ncon1` [Compound I-66, 5-(2,4-Dihydroxy-5-isopropylphenyl)-N-ethyl-4-(1,2,4-oxadiazol-3-yl)isoxazole-3-carboxamide], the half-maximal inhibitory concentration (IC50) is less than 500 nM in test [1] and 500 to 1000 nM against yeast HSP90.
For `CCNC(=O)c1noc(-c2cc(C(C)C)c(O)cc2O)c1-c1noc(C(=O)N2CCOCC2)n1` [Compound I-67, 5-(2,4-Dihydroxy-5-isopropylphenyl)-N-ethyl-4-(5-(morpholine-4-carbonyl)-1,2,4-oxadiazol-3-yl)isoxazole-3-carboxamide], the IC50 (in test [1]; at yeast HSP90) was 500 to 1000 nM in each case.
As for `CCNC(=O)c1noc(-c2cc(C(C)C)c(O)cc2O)c1-c1noc(C(=O)N2CCCC2)n1` [Compound I-68, 5-(2,4-Dihydroxy-5-isopropylphenyl)-N-ethyl-4-(5-(pyrrolidine-1-carbonyl)-1,2,4-oxadiazol-3-yl)isoxazole-3-carboxamide], the figures for the half-inhibitory concentration (IC50) (in test [1]; against yeast HSP90) were less than 500 nM and 500 to 1000 nM, respectively.
Regarding `CCNC(=O)c1noc(-c2cc(C(C)C)c(O)cc2O)c1-c1noc(N2CCCC2)n1` [Compound I-69, 5-(2,4-Dihydroxy-5-isopropylphenyl)-N-ethyl-4-(5-(pyrrolidin-1-yl)-1,2,4-oxadiazol-3-yl)isoxazole-3-carboxamide], the IC50 in test [1] was less than 500 nM; at yeast HSP90 it was 500 to 1000 nM.
As to `CCNC(=O)c1noc(-c2cc(C(C)C)c(O)cc2O)c1-c1noc(C(Cl)(Cl)Cl)n1` [Compound I-70, 5-(2,4-Dihydroxy-5-isopropylphenyl)-N-ethyl-4-(5-(trichloromethyl)-1,2,4-oxadiazol-3-yl)isoxazole-3-carboxamide], the IC50 (in test [1]; against yeast HSP90) was 500 to 1000 nM in each case.
On to `CCNC(=O)c1noc(-c2cc(C(C)C)c(O)cc2O)c1-c1noc(N2CCCCC2)n1` [Compound I-71, 5-(2,4-Dihydroxy-5-isopropylphenyl)-N-ethyl-4-(5-(piperidin-1-yl)-1,2,4-oxadiazol-3-yl)isoxazole-3-carboxamide], for which the IC50 (in test [1]; against yeast HSP90) was less than 500 nM each time.
In the case of `CCNC(=O)c1noc(-c2cc(C(C)C)c(O)cc2O)c1-c1noc(N(C)C)n1` [Compound I-72, 5-(2,4-Dihydroxy-5-isopropylphenyl)-4-(5-(dimethylamino)-1,2,4-oxadiazol-3-yl)-N-ethylisoxazole-3-carboxamide], the IC50 (in test [1]; at yeast HSP90) was less than 500 nM each time.
For the compound `CCNC(=O)c1noc(-c2cc(C(C)C)c(O)cc2O)c1-c1noc(N2CCOCC2)n1` [Compound I-73, 5-(2,4-Dihydroxy-5-isopropylphenyl)-N-ethyl-4-(5-morpholino-1,2,4-oxadiazol-3-yl)isoxazole-3-carboxamide], the values for the IC50 (in test [1]; against yeast HSP90) were less than 500 nM and 500 to 1000 nM, respectively.
For `CCNC(=O)c1noc(-c2cc(C(C)C)c(O)cc2O)c1-c1noc(C(=O)N(CC)CC)n1` [Compound I-74, 3-(5-(2,4-Dihydroxy-5-isopropylphenyl)-3-(ethylcarbamoyl)isoxazol-4-yl)-N,N-diethyl-1,2,4-oxadiazole-5-carboxamide] the same measures were 500 to 1000 nM and 500 to 1000 nM.
For `CCNC(=O)c1noc(-c2cc(C(C)C)c(O)cc2O)c1-c1noc(COC)n1` [Compound I-75, 5-(2,4-Dihydroxy-5-isopropylphenyl)-N-ethyl-4-(5-(methoxymethyl)-1,2,4-oxadiazol-3-yl)isoxazole-3-carboxamide] the same measures were less than 500 nM and less than 500 nM.
In the same order, the values of `CCNC(=O)c1noc(-c2cc(C(C)C)c(O)cc2O)c1-c1noc(N(CC)CC)n1` [Compound I-76, 4-(5-(Diethylamino)-1,2,4-oxadiazol-3-yl)-5-(2,4-dihydroxy-5-isopropylphenyl)-N-ethylisoxazole-3-carboxamide] are less than 500 nM and less than 500 nM.
As for `CCNC(=O)c1noc(-c2cc(C(C)C)c(O)cc2O)c1-c1noc(-c2cccs2)n1` [Compound I-77, 5-(2,4-Dihydroxy-5-isopropylphenyl)-N-ethyl-4-(5-(thiophen-2-yl)-1,2,4-oxadiazol-3-yl)isoxazole-3-carboxamide], the IC50 is less than 500 nM in test [1] and 500 to 1000 nM against yeast HSP90.
For `CCNC(=O)c1noc(-c2cc(C(C)C)c(O)cc2O)c1-c1noc(N)n1` [Compound I-78, 4-(5-Amino-1,2,4-oxadiazol-3-yl)-5-(2,4-dihydroxy-5-isopropylphenyl)-N-ethylisoxazole-3-carboxamide], the IC50 (in test [1]; against yeast HSP90) was less than 500 nM throughout.
In the case of `CCNC(=O)c1noc(-c2cc(C(C)C)c(O)cc2O)c1-c1noc(NC)n1` [Compound I-79, 5-(2,4-Dihydroxy-5-isopropylphenyl)-N-ethyl-4-(5-(methylamino)-1,2,4-oxadiazol-3-yl)isoxazole-3-carboxamide], the IC50 in test [1] is less than 500 nM; at yeast HSP90, 500 to 1000 nM.
Consider `CCNC(=O)c1noc(-c2cc(C(C)C)c(O)cc2O)c1-c1noc(O)n1` [Compound I-80, 5-(2,4-Dihydroxy-5-isopropylphenyl)-N-ethyl-4-(5-hydroxy-1,2,4-oxadiazol-3-yl)isoxazole-3-carboxamide], for which the half-maximal inhibitory concentration (IC50) (in test [1]; at yeast HSP90) was more than 1000 nM throughout.
As for `CCNC(=O)c1noc(-c2cc(C(C)C)c(O)cc2O)c1-c1noc(CO)n1` [Compound I-81, 5-(2,4-Dihydroxy-5-isopropylphenyl)-N-ethyl-4-(5-(hydroxymethyl)-1,2,4-oxadiazol-3-yl)isoxazole-3-carboxamide], the results for the IC50 (in test [1]; against yeast HSP90) were less than 500 nM and 500 to 1000 nM, respectively.
For `CCNC(=O)c1noc(-c2cc(C(C)C)c(O)cc2O)c1-c1noc(S)n1` [Compound I-82, 5-(2,4-Dihydroxy-5-isopropylphenyl)-N-ethyl-4-(5-mercapto-1,2,4-oxadiazol-3-yl)isoxazole-3-carboxamide] the same measures were 500 to 1000 nM and 500 to 1000 nM.
Turning to `CCNC(=O)c1noc(-c2cc(C(C)C)c(O)cc2O)c1-c1noc([C@H](C)O)n1` [Compound I-83, (S)-5-(2,4-Dihydroxy-5-isopropylphenyl)-N-ethyl-4-(5-(1-hydroxyethyl)-1,2,4-oxadiazol-3-yl)isoxazole-3-carboxamide], the values for the IC50 (in test [1]; against yeast HSP90) were less than 500 nM and 500 to 1000 nM, respectively.
`CCNC(=O)c1noc(-c2cc(C(C)C)c(O)cc2O)c1-c1noc(-c2ccc(OC)cc2)n1` [Compound I-84, 5-(2,4-Dihydroxy-5-isopropylphenyl)-N-ethyl-4-(5-(4-methoxyphenyl)-1,2,4-oxadiazol-3-yl)isoxazole-3-carboxamide]: the half-inhibitory concentration (IC50) (in test [1]; at yeast HSP90) was 500 to 1000 nM throughout.
Regarding `CCNC(=O)c1noc(-c2cc(C(C)C)c(O)cc2O)c1-c1noc(-c2ccc([N+](=O)[O-])cc2)n1` [Compound I-85, 5-(2,4-Dihydroxy-5-isopropylphenyl)-N-ethyl-4-(5-(4-nitrophenyl)-1,2,4-oxadiazol-3-yl)isoxazole-3-carboxamide], the IC50 (in test [1]; against yeast HSP90) was less than 500 nM each time.
As to `CCNC(=O)c1noc(-c2cc(C(C)C)c(O)cc2O)c1-c1noc(OC)n1` [Compound I-86, 5-(2,4-Dihydroxy-5-isopropylphenyl)-N-ethyl-4-(5-methoxy-1,2,4-oxadiazol-3-yl)isoxazole-3-carboxamide], the IC50 is less than 500 nM in test [1] and 500 to 1000 nM at yeast HSP90.
For `CCNC(=O)c1noc(-c2cc(C(C)C)c(O)cc2O)c1-c1noc(SC)n1` [Compound I-87, 5-(2,4-Dihydroxy-5-isopropylphenyl)-N-ethyl-4-(5-(methylthio)-1,2,4-oxadiazol-3-yl)isoxazole-3-carboxamide], the IC50 is 500 to 1000 nM in test [1] and less than 500 nM against yeast HSP90.
As to `CCNC(=O)c1noc(-c2cc(C(C)C)c(O)cc2O)c1-c1noc(C2CCCC2)n1` [Compound I-88, 4-(5-Cyclopentyl-1,2,4-oxadiazol-3-yl)-5-(2,4-dihydroxy-5-isopropylphenyl)-N-ethylisoxazole-3-carboxamide], the IC50 (in test [1]; on yeast HSP90) was less than 500 nM throughout.
As to `CCNC(=O)c1noc(-c2cc(C(C)C)c(O)cc2O)c1-c1noc(C2CCCCC2)n1` [Compound I-89, 4-(5-Cyclohexyl-1,2,4-oxadiazol-3-yl)-5-(2,4-dihydroxy-5-isopropylphenyl)-N-ethylisoxazole-3-carboxamide], the values for the IC50 (in test [1]; on yeast HSP90) were less than 500 nM and 500 to 1000 nM, respectively.
In the same order, the values of `CCNC(=O)c1noc(-c2cc(C(C)C)c(O)cc2O)c1-c1noc(-c2ccc(OCC)cc2)n1` [Compound I-90, 5-(2,4-Dihydroxy-5-isopropylphenyl)-4-(5-(4-ethoxyphenyl)-1,2,4-oxadiazol-3-yl)-N-ethylisoxazole-3-carboxamide] are more than 1000 nM and 500 to 1000 nM.
